Inconclusive results and toxic doses are left out. The calls were made as follows: active = survival T/C of 150% or more; inactive = T/C below 125% in these data.
Tested on: CD2F1 mice, L1210 leukemia ip, survival T/C
Experiment: NCI In Vivo Anticancer Drug Screen. Data for tumor model L1210 Leukemia (intraperitoneal) in CD2F1 (CDF1) mice
Details: higher = longer survival
Method in brief: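 Antitumor effect is scored in animals hosting a serially transplanted tumor. Values compare compound-dosed animals against vehicle-only controls as a simple quotient.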

[1] = endpoint: mean survival time, dose: 100.0 mg/kg/injection, schedule: Q04DX003 (ip), vehicle: saline with Tween-80
[2] = endpoint: mean survival time, dose: 200.0 mg/kg/injection, schedule: Q04DX003 (ip), vehicle: saline with Tween-80
[3] = endpoint: mean survival time, dose: 400.0 mg/kg/injection, schedule: Q04DX003 (ip), vehicle: saline with Tween-80
[4] = endpoint: mean survival time, dose: 100.0 mg/kg/injection, schedule: Q01DX009 (ip), vehicle: saline with Tween-80
[5] = endpoint: mean survival time, dose: 200.0 mg/kg/injection, schedule: Q01DX009 (ip), vehicle: saline with Tween-80
[6] = endpoint: mean survival time, dose: 400.0 mg/kg/injection, schedule: Q01DX009 (ip), vehicle: saline with Tween-80

Measured: T/C

NNc1ncnc2c1cnn2C1OC(CO)C(O)C1O (stereo not given)
inactive: endpoint: mean survival time, dose: 12.5 mg/kg/injection, schedule: Q01DX009 (ip), vehicle: other 103 % of control | endpoint: mean survival time, dose: 25.0 mg/kg/injection, schedule: Q01DX009 (ip), vehicle: other 103 % of control | endpoint: mean survival time, dose: 50.0 mg/kg/injection, schedule: Q01DX009 (ip), vehicle: other 103 % of control | endpoint: mean survival time, dose: 100.0 mg/kg/injection, schedule: Q01DX009 (ip), vehicle: other 110 % of control | endpoint: mean survival time, dose: 200.0 mg/kg/injection, schedule: Q01DX009 (ip), vehicle: other 112 % of control | endpoint: mean survival time, dose: 400.0 mg/kg/injection, schedule: Q01DX009 (ip), vehicle: other 89 % of control

CN(C)N=C1CCCCCC1
inactive: endpoint: mean survival time, dose: 75.0 mg/kg/injection, schedule: Q01DX001 (ip), vehicle: saline 102 % of control | endpoint: mean survival time, dose: 150.0 mg/kg/injection, schedule: Q01DX001 (ip), vehicle: saline 98 % of control

CCOC(=O)N(C)N=NC
inactive: endpoint: median survival time, dose: 3.75 mg/kg/injection, schedule: Q01DX005 (ip), vehicle: saline 110 % of control | endpoint: median survival time, dose: 7.5 mg/kg/injection, schedule: Q01DX005 (ip), vehicle: saline 119 % of control | endpoint: median survival time, dose: 10.8 mg/kg/injection, schedule: Q01DX005 (ip), vehicle: saline 124 % of control | endpoint: median survival time, dose: 50.0 mg/kg/injection, schedule: Q01DX005 (ip), vehicle: saline 86 % of control

Clc1nc2ccccc2nc1CI
inactive: endpoint: mean survival time, dose: 100.0 mg/kg/injection, schedule: Q04DX003 (ip), vehicle: acetone 100 % of control

C=C1C(=O)OCC2CCCCC12C (stereo not given)
inactive: endpoint: mean survival time, dose: 1.25 mg/kg/injection, schedule: Q01DX009 (ip), vehicle: saline with Tween-80 98 % of control | endpoint: mean survival time, dose: 2.5 mg/kg/injection, schedule: Q01DX009 (ip), vehicle: saline with Tween-80 101 % of control | endpoint: mean survival time, dose: 5.0 mg/kg/injection, schedule: Q01DX009 (ip), vehicle: saline with Tween-80 101 % of control | endpoint: mean survival time, dose: 10.0 mg/kg/injection, schedule: Q01DX009 (ip), vehicle: saline with Tween-80 98 % of control

CC(=O)OC1OC(=O)C(C)(C(C)=O)C1C (stereo not given)
inactive: endpoint: median survival time, dose: 2.5 mg/kg/injection, schedule: Q01DX009 (ip), vehicle: distilled water + alcohol 103 % of control | endpoint: median survival time, dose: 5.0 mg/kg/injection, schedule: Q01DX009 (ip), vehicle: distilled water + alcohol 101 % of control | endpoint: median survival time, dose: 10.0 mg/kg/injection, schedule: Q01DX009 (ip), vehicle: distilled water + alcohol 104 % of control | endpoint: median survival time, dose: 20.0 mg/kg/injection, schedule: Q01DX009 (ip), vehicle: distilled water + alcohol 103 % of control

CCOC(=O)c1cn[nH]c1/N=N/N(C)C
inactive: endpoint: mean survival time, dose: 100.0 mg/kg/injection, schedule: Q01DX001 (ip), vehicle: carboxymethylcellulose (CMC) 115 % of control

O=C(c1ccccc1)C1(c2ccccc2)CC1
inactive: [1] 108 % of control | [2] 101 % of control | [3] 101 % of control

O=C1C=C(c2ccccc2)C(c2ccccc2)C(c2ccccc2)C1 (stereo not given)
inactive: [4] 93 % of control | [5] 93 % of control | [6] 96 % of control

CCCCCOC(CN)C(Cl)(Cl)Cl (stereo not given)
inactive: endpoint: mean survival time, dose: 12.5 mg/kg/injection, schedule: Q01DX009 (ip), vehicle: saline with Tween-80 101 % of control | endpoint: mean survival time, dose: 25.0 mg/kg/injection, schedule: Q01DX009 (ip), vehicle: saline with Tween-80 96 % of control | endpoint: mean survival time, dose: 50.0 mg/kg/injection, schedule: Q01DX009 (ip), vehicle: saline with Tween-80 95 % of control | [4] 98 % of control

COc1ccccc1NC(=O)Oc1ccc(OCc2ccccc2)cc1
inactive: [4] 94 % of control | [1] 108 % of control | [5] 88 % of control | [2] 100 % of control | [6] 87 % of control | [3] 95 % of control

Cc1c(Cl)ccc(Cl)c1Cl
inactive: endpoint: mean survival time, dose: 100.0 mg/kg/injection, schedule: Q01DX009 (ip), vehicle: saline sonified 105 % of control | endpoint: mean survival time, dose: 100.0 mg/kg/injection, schedule: Q04DX003 (ip), vehicle: saline sonified 104 % of control | endpoint: mean survival time, dose: 200.0 mg/kg/injection, schedule: Q01DX009 (ip), vehicle: saline sonified 100 % of control | endpoint: mean survival time, dose: 200.0 mg/kg/injection, schedule: Q04DX003 (ip), vehicle: saline sonified 101 % of control | endpoint: mean survival time, dose: 400.0 mg/kg/injection, schedule: Q01DX009 (ip), vehicle: saline sonified 102 % of control | endpoint: mean survival time, dose: 400.0 mg/kg/injection, schedule: Q04DX003 (ip), vehicle: saline sonified 106 % of control

CN(C)C(=O)c1cccc(COc2ccc(N3C(N)=NC(N)=NC3(C)C)cc2Cl)c1
inactive: endpoint: mean survival time, dose: 0.2 mg/kg/injection, schedule: Q01DX009 (ip), vehicle: saline 100 % of control | endpoint: mean survival time, dose: 0.4 mg/kg/injection, schedule: Q01DX009 (ip), vehicle: saline 98 % of control | endpoint: mean survival time, dose: 1.56 mg/kg/injection, schedule: Q01DX009 (ip), vehicle: saline 98 % of control | endpoint: mean survival time, dose: 3.13 mg/kg/injection, schedule: Q01DX009 (ip), vehicle: saline 100 % of control | endpoint: mean survival time, dose: 6.25 mg/kg/injection, schedule: Q01DX009 (ip), vehicle: saline 98 % of control | endpoint: mean survival time, dose: 12.5 mg/kg/injection, schedule: Q01DX009 (ip), vehicle: saline 98 % of control | endpoint: mean survival time, dose: 65.0 mg/kg/injection, schedule: Q01DX009 (ip), vehicle: saline 97 % of control

CCCCCCCCCCCCCCCCCC[Se][Se]CCCCCCCCCCCCCCCCCC
inactive: endpoint: mean survival time, dose: 25.0 mg/kg/injection, schedule: Q04DX003 (ip), vehicle: saline with Tween-80 93 % of control | endpoint: mean survival time, dose: 50.0 mg/kg/injection, schedule: Q04DX003 (ip), vehicle: saline with Tween-80 95 % of control | [1] 95 % of control

C[n+]1c(-c2cc(C(F)(F)F)cc(C(F)(F)F)c2)c2cc(N)ccc2c2ccc(N)cc21
inactive: endpoint: mean survival time, dose: 6.25 mg/kg/injection, schedule: Q01DX005 (ip), vehicle: saline with Tween-80 106 % of control | endpoint: mean survival time, dose: 12.5 mg/kg/injection, schedule: Q01DX005 (ip), vehicle: saline with Tween-80 101 % of control | endpoint: mean survival time, dose: 25.0 mg/kg/injection, schedule: Q01DX005 (ip), vehicle: saline with Tween-80 106 % of control | endpoint: mean survival time, dose: 50.0 mg/kg/injection, schedule: Q01DX005 (ip), vehicle: saline with Tween-80 111 % of control | endpoint: mean survival time, dose: 100.0 mg/kg/injection, schedule: Q01DX005 (ip), vehicle: saline with Tween-80 116 % of control

CC12CCC(CC1CO)C2 (stereo not given)
inactive: [1] 88 % of control | [2] 87 % of control

CCOC(=O)CC1(O)CCCCC1
inactive: [4] 101 % of control | [1] 100 % of control | [5] 101 % of control | [2] 101 % of control | [6] 100 % of control | [3] 97 % of control

COC(=O)c1ccc(C=O)cc1
inactive: endpoint: mean survival time, dose: 100.0 mg/kg/injection, schedule: Q04DX003 (ip), vehicle: Klucel (hydroxypropylcellulose) (HPC) 87 % of control | endpoint: mean survival time, dose: 200.0 mg/kg/injection, schedule: Q04DX003 (ip), vehicle: Klucel (hydroxypropylcellulose) (HPC) 102 % of control | endpoint: mean survival time, dose: 400.0 mg/kg/injection, schedule: Q04DX003 (ip), vehicle: Klucel (hydroxypropylcellulose) (HPC) 94 % of control

O=S(=O)(Nc1cc(Cl)c(NS(=O)(=O)c2ccccc2)cc1Cl)c1ccccc1
inactive: endpoint: mean survival time, dose: 100.0 mg/kg/injection, schedule: Q01DX001 (ip), vehicle: saline with Tween-80 96 % of control | endpoint: mean survival time, dose: 200.0 mg/kg/injection, schedule: Q01DX001 (ip), vehicle: saline with Tween-80 88 % of control | endpoint: mean survival time, dose: 400.0 mg/kg/injection, schedule: Q01DX001 (ip), vehicle: saline with Tween-80 93 % of control

CCOCCN1CCN(CCCN2c3ccccc3Sc3ccc(C(F)(F)F)cc32)CC1
inactive: endpoint: mean survival time, dose: 1.75 mg/kg/injection, schedule: Q01DX001 (ip), vehicle: water 103 % of control | endpoint: mean survival time, dose: 3.5 mg/kg/injection, schedule: Q01DX001 (ip), vehicle: water 106 % of control | endpoint: mean survival time, dose: 7.0 mg/kg/injection, schedule: Q01DX001 (ip), vehicle: water 105 % of control | endpoint: mean survival time, dose: 9.9 mg/kg/injection, schedule: Q01DX001 (ip), vehicle: water 102 % of control | endpoint: mean survival time, dose: 15.0 mg/kg/injection, schedule: Q01DX001 (ip), vehicle: water 98 % of control | endpoint: mean survival time, dose: 22.0 mg/kg/injection, schedule: Q01DX001 (ip), vehicle: water 106 % of control | endpoint: mean survival time, dose: 37.5 mg/kg/injection, schedule: Q04DX003 (ip), vehicle: saline 122 % of control

Reference: PubChem BioAssay AID256 (DTP/NCI, 2004)
